≈ marks a conversion by molar mass, not a printed value. Read-outs that look alike come from different tables or passages of the source.

Data set [1] relates to Kleb. pneumoniae ATCC 10031. Kind of data set: Antibacterial activity (minimum effective inhibitory concentration). Format: cell-based. The settings on record: Klebsiella pneumoniae, ATCC10031, read-out: minimum effective inhibitory concentrations. The source says:
(§1) Antibacterial activities (minimum effective inhbitory concentrations) of compounds of formula I (taken from the following Examples) are shown in the following Table.

Data set [2] concerns Ps. aeruginosa NCTC 10490. Described as above. The settings on record: Pseudomonas aeruginosa, NCTC10490, read-out: minimum effective inhibitory concentrations. It counts as cell-based.
Source text: as §1

Data set [3] relates to Staph. epidermidis IID 866. The data set is described as above. Format: cell-based. The settings on record: Staphylococcus epidermidis, IID866, read-out: minimum effective inhibitory concentrations.
Source text: as §1

The test system of a further data set is Serr. marcescense NY-10. The data set is described as above. It counts as cell-based. Conditions: read-out: minimum effective inhibitory concentrations.
Source text: as §1

A further data set deals with E. coli NIHJ. Described as above. It counts as cell-based. The settings on record: Escherichia coli, read-out: minimum effective inhibitory concentrations.
Source text: as §1

Another data set in a line: Solubility in water. Format: physicochemical.

As for `CON=C(C(=O)NC1C(=O)N2C(C(=O)[O-])=C(C[n+]3ccc4c(c3)NC(=O)CO4)CSC12)c1csc(N)n1` (stereo not drawn) [Example 11, (Z)-7-[α-(2-amino-4-thiazolyl)-α-methoxyimino-acetamido]-3-[[6-(3-oxo-3,4-dihydro-2H-pyrido[4,3-b]-1,4-oxazinio)]methyl -Δ^3-cephem-4-carboxylate], the MIC in data set [1] is under 0.2 µg/mL; in data set [2], 1.56 µg/mL (≈ 2.86 µM); in data set [3], 0.78 µg/mL (≈ 1.43 µM); in the data set with Serr. marcescense NY-10 (Serr. marcescense NY-10), under 0.2 µg/mL; in the data set on E. coli NIHJ (E. coli NIHJ), under 0.2 µg/mL.
For `CO/N=C(\C(=O)N[C@@H]1C(=O)N2C(C(=O)[O-])=C(C[n+]3ccc(OCC(O)CO)c(N)c3)CS[C@H]12)c1csc(N)n1` (stereo partly drawn) [Example 6, (Z ) -7-[α-(2-amino-4-thiazolyl)-α-methoxyiminoacetamido]-3-[3-amino-4-(2,3-dihydroxypropyloxy)pyridiniomethyl]-Δ^3-cephem-4-carboxylate], the MIC in data set [1] is under 0.2 µg/mL; in data set [2], 1.56 µg/mL (≈ 2.69 µM); in data set [3] it was 0.78 µg/mL (≈ 1.35 µM); in the data set on Serr. marcescense NY-10 (Serr. marcescense NY-10) it was under 0.2 µg/mL; in the data set on E. coli NIHJ (E. coli NIHJ), under 0.2 µg/mL.
`CO/N=C(\C(=O)N[C@@H]1C(=O)N2C(C(=O)[O-])=C(C[n+]3ccc(C)c(N)c3)CS[C@H]12)c1csc(N)n1` [Example 9, (Z)-1-[α-(2-amino-4-thiazolyl)-α-methoxyiminoacet--amido]-3-(3-amino-4-methylpyridiniomethyl)-Δ^3-cephem-4-carboxylic acid]: the MIC in data set [1] was under 0.2 µg/mL; in data set [2] it was 1.56 µg/mL (≈ 3.1 µM); in data set [3], 0.2 µg/mL (≈ 0.397 µM); in the data set on Serr. marcescense NY-10 (Serr. marcescense NY-10) it was under 0.2 µg/mL; with E. coli NIHJ (E. coli NIHJ), under 0.2 µg/mL.
For `CON=C(C(=O)NC1C(=O)N2C(C(=O)[O-])=C(C[n+]3ccc4c(c3)NCCO4)CSC12)c1csc(N)n1` (stereo not drawn) [Example 13, (Z)-7-[α-(2-amino-4-thiazolyl) -α-methoxyiminoacetamido]-3-[[6-(3,4-dihydro-2H-pyrido[4,3-b1-1,4-oxazinio)]methyl]-Δ^3-cephem-4-carboxylate], the MIC in data set [1] is under 0.2 µg/mL; in data set [2] it was 0.78 µg/mL (≈ 1.47 µM); in data set [3], 0.39 µg/mL (≈ 0.734 µM); in the data set with Serr. marcescense NY-10 (Serr. marcescense NY-10), under 0.2 µg/mL; in the data set on E. coli NIHJ (E. coli NIHJ) it was under 0.2 µg/mL.
On to `CO/N=C(\C(=O)N[C@@H]1C(=O)N2C(C(=O)[O-])=C(C[n+]3ccc(OC)c(N)c3)CS[C@H]12)c1csc(N)n1` [Example 5, (Z)-7-[α-(2-amino-4-thiazolyl)-α-methoxyiminoacetamido,]-3-(3-amino-4-methoxypyridiniomethyl)-Δ^3-cephem-4-carboxylate], for which the MIC was under 0.2 µg/mL in data set [1]; 1.56 µg/mL (≈ 3 µM) in data set [2]; 0.2 µg/mL (≈ 0.385 µM) in data set [3]; under 0.2 µg/mL with Serr. marcescense NY-10 (Serr. marcescense NY-10); under 0.2 µg/mL with E. coli NIHJ (E. coli NIHJ). For the same compound, the solubility in the data set “Solubility in water” was over 230 mg/mL.
Turning to `CC(C)(O/N=C(\C(=O)N[C@@H]1C(=O)N2C(C(=O)[O-])=C(C[n+]3ccccc3)CS[C@H]12)c1csc(N)n1)C(=O)O` [cefta-zidime, reference compound], the MIC was under 0.2 µg/mL in data set [1]; 0.78 µg/mL (≈ 1.43 µM) in data set [2]; 3.13 µg/mL (≈ 5.73 µM) in data set [3]; under 0.2 µg/mL in the data set on Serr. marcescense NY-10; under 0.2 µg/mL in the data set on E. coli NIHJ.
On to `CON=C(C(=O)NC1C(=O)N2C(C(=O)[O-])=C(C[n+]3ccc4c(c3)N(O)C(=O)CO4)CSC12)c1csc(N)n1` (stereo not drawn) [Example 12, (Z)-7-[α-(2-amino-4-thiazolyl)-α-methoxyiminoacetamido]-3-[[6-(4-hydroxy-3-oxo-3,4-dihydro-2H-pyrido[4,3-b]-1,4-oxazinio)]methyl]-Δ^3-cephem-4-carboxylate], for which the MIC is under 0.2 µg/mL in data set [1]; 1.56 µg/mL (≈ 2.78 µM) in data set [2]; 1.56 µg/mL (≈ 2.78 µM) in data set [3]; under 0.2 µg/mL in the data set on Serr. marcescense NY-10 (Serr. marcescense NY-10); under 0.2 µg/mL with E. coli NIHJ (E. coli NIHJ).
For the compound `CON=C(C(=O)NC1C(=O)N2C(C(=O)[O-])=C(C[n+]3ccc4c(c3)N(OC)C(=O)CO4)CSC12)c1csc(N)n1` (stereo not drawn) [Example 10], the MIC in data set [1] is under 0.2 µg/mL; in data set [2], 0.39 µg/mL (≈ 0.678 µM); in data set [3] it was 6.25 µg/mL (≈ 10.9 µM); in the data set on Serr. marcescense NY-10 (Serr. marcescense NY-10), 0.2 µg/mL (≈ 0.347 µM); in the data set with E. coli NIHJ (E. coli NIHJ), under 0.2 µg/mL.
For `CC(C)(ON=C(C(=O)NC1C(=O)N2C(C(=O)[O-])=C(C[n+]3cc(N)cc(N)c3)CSC12)c1csc(N)n1)C(=O)O` (stereo not drawn) [Example 2, (Z)-7-[λ-(2-amino-4 thiazolyl)-λ-(1-carboxy-1-methylethoxyimino)acetamido]--3-(3,5-diamino-1-pyridiniomethyl)-Δ^3-cephem-4-carboxylate], the MIC is under 0.2 µg/mL in data set [1]; 0.39 µg/mL (≈ 0.676 µM) in data set [2]; 1.56 µg/mL (≈ 2.71 µM) in data set [3]; under 0.2 µg/mL in the data set on Serr. marcescense NY-10 (Serr. marcescense NY-10); under 0.2 µg/mL in the data set with E. coli NIHJ (E. coli NIHJ).
As to `CON=C(C(=O)NC1C(=O)N2C(C(=O)[O-])=C(C[n+]3ccc(N)c(N)c3)CSC12)c1csc(N)n1` (stereo not drawn) [Example 3, (Z)-7-[λ-(2-amino-4-thiazolyl)-λ-(methoxyimino)acetamido]-3-(3,4-diamino-1-pyridiniomethyl)-Δ^3-cephem-4-carboxylate], the MIC in data set [1] is under 0.2 µg/mL; in data set [2], 1.56 µg/mL (≈ 3.09 µM); in data set [3] it was 0.2 µg/mL (≈ 0.396 µM); in the data set on Serr. marcescense NY-10 (Serr. marcescense NY-10), under 0.2 µg/mL; in the data set with E. coli NIHJ (E. coli NIHJ), under 0.2 µg/mL.

By solubility is commonly meant the dissolved amount per volume that the medium holds. High values mean much dissolved substance, low ones little dissolved substance.

For the origin of these results see patent EP0160546A2, “Cephalosporin compounds, and their production, and medicaments containing them” (YAMANOUCHI PHARMACEUTICAL CO. LTD., priority 1984, dated 1985).
